Results from the supplement of paper PMC13380429.

What was measured:
Conditions in all cases: 72 h
Caco-2 [1] = assay: relative viability EC50 (midpoint between 100% and the lowest measured viability); higher = less toxic
Vero E6 [2] = assay: as above
U2OS [3] = assay: as above
Calu-3 [4] = assay: as above
Caco-2 [5] = assay: drug sensitivity score (DSS) for viability; higher = more toxic; extreme values may be limits of the assay
Vero E6 [6] = assay: as above
U2OS [7] = assay: as above
Calu-3 [8] = assay: as above
HepG2 [9] = assay: as above
Caco-2 [10] = assay: cell viability relative to DMSO; higher = less toxic
Vero E6 [11] = assay: as above
U2OS [12] = assay: as above
Calu-3 [13] = assay: as above
HepG2 [14] = assay: as above

Row | SMILES | relative viability EC50 (Caco-2 [1]) | relative viability EC50 (Vero E6 [2]) | relative viability EC50 (U2OS [3]) | relative viability EC50 (Calu-3 [4]) | drug sensitivity score (Caco-2 [5]) | drug sensitivity score (Vero E6 [6]) | drug sensitivity score (U2OS [7]) | drug sensitivity score (Calu-3 [8]) | drug sensitivity score (HepG2 [9]) | cell viability (Caco-2 [10]; 1 nM) | cell viability (Caco-2 [10]; 10 nM) | cell viability (Caco-2 [10]; 100 nM) | cell viability (Caco-2 [10]; 1000 nM) | cell viability (Caco-2 [10]; 10000 nM) | cell viability (Vero E6 [11]; 1 nM) | cell viability (Vero E6 [11]; 10 nM) | cell viability (Vero E6 [11]; 100 nM) | cell viability (Vero E6 [11]; 1000 nM) | cell viability (Vero E6 [11]; 10000 nM) | cell viability (U2OS [12]; 1 nM) | cell viability (U2OS [12]; 10 nM) | cell viability (U2OS [12]; 100 nM) | cell viability (U2OS [12]; 1000 nM) | cell viability (U2OS [12]; 10000 nM) | cell viability (Calu-3 [13]; 1 nM) | cell viability (Calu-3 [13]; 10 nM) | cell viability (Calu-3 [13]; 100 nM) | cell viability (Calu-3 [13]; 1000 nM) | cell viability (Calu-3 [13]; 10000 nM) | cell viability (HepG2 [14]; 1 nM) | cell viability (HepG2 [14]; 10 nM) | cell viability (HepG2 [14]; 100 nM) | cell viability (HepG2 [14]; 1000 nM) | cell viability (HepG2 [14]; 10000 nM)
1 | CCCn1c(=O)c2nc(-c3ccccc3)[nH]c2n(CCC)c1=O [1,3-dipropyl-8-phenylxanthine] | > 10 µM | > 10 µM | > 10 µM | > 10 µM | 0.4 | 0 | 0 | 0 | 2.7 | 91.1% | 96.4% | 90.3% | 102% | 81.9% | 96.6% | 95.4% | 94% | 95.7% | 94.9% | 98.1% | 95.4% | 90.1% | 97.1% | 90.5% | 102% | 102% | 101% | 102% | 89.4% | 108% | 99.8% | 103% | 90.3% | 69.5%
2 | CN(C)c1nc(N)c(C(=O)Nc2cccnc2)nc1Cl [ACDPP] | > 10 µM | > 10 µM | > 10 µM | > 10 µM | 0 | 0 | 0 | 0 | 4.5 | 87.4% | 98.7% | 93% | 89.2% | 87.9% | 102% | 95.3% | 98.3% | 95.1% | 99.9% | 93.6% | 98% | 97.7% | 98.5% | 105% | 100% | 96.8% | 104% | 96.4% | 94.6% | 104% | 105% | 103% | 80.9% | 58.9%
3 | CN(C)C(=O)c1ccc(S(=O)(=O)c2ccc(NC(=O)[C@@](C)(O)C(F)(F)F)c(Cl)c2)cc1 [AZD7545] | > 10 µM | > 10 µM | > 10 µM | > 10 µM | 1.2 | 0.2 | 0.1 | 0 | 2 | 103% | 96.3% | 96.7% | 96.1% | 79.6% | 101% | 99% | 99.7% | 89% | 90.9% | 94.5% | 104% | 91.9% | 103% | 84.9% | 99.6% | 107% | 85.2% | 94% | 102% | 94.3% | 99.1% | 95% | 99.1% | 61%
4 | O=C1Nc2ccc(I)cc2C1=Cc1cc(Br)c(O)c(Br)c1 [GW-5074] | > 10 µM | > 10 µM | > 10 µM | > 10 µM | 0.2 | 0 | 0 | 0 | 1.8 | 95.6% | 97.5% | 108% | 95% | 88.3% | 97% | 97.3% | 95.8% | 96% | 108% | 99.3% | 97.3% | 100% | 96.1% | 95.5% | 95.1% | 94.2% | 104% | 90.9% | 114% | 90.3% | 98.5% | 97.3% | 97.5% | 68.9%
5 | O=c1c2ccccc2[se]n1-c1ccccc1 [ebselen] | > 10 µM | > 10 µM | > 10 µM | > 10 µM | 0 | 0 | 0 | 0 | – | 88% | 102% | 107% | 88.5% | 100% | 96.4% | 98.5% | 99.4% | 97.6% | 104% | 97.4% | 98.7% | 105% | 97.4% | 102% | 107% | 93.5% | 91.3% | 87.6% | 111% | – | – | – | – | –
6 | COc1ccc([C@@H]2CC(=O)c3c(O)cc(O)cc3O2)cc1O [hesperetin] | > 10 µM | > 10 µM | > 10 µM | > 10 µM | 0 | 0 | 0 | 0.1 | – | 104% | 88.5% | 92.7% | 104% | 98.4% | 94.9% | 98.7% | 98.9% | 90.1% | 108% | 104% | 96.3% | 97.1% | 99.8% | 102% | 102% | 93.7% | 102% | 93% | 89.2% | – | – | – | – | –
